Reference: publication PMC11157767 (Molecular Cancer, 2024)

Tested on: TFG-MET allograft tumors
Assay: RNA-sequencing, differential expression and GSEA of TFG-MET allograft tumors
Type: in vivo, mouse
Details: CAP v Veh
Protocol: Error bars display standard error of mean, statistical significance was determined using t-test analysis. (****;p<0.0001, ***;p<0.001, **;p<0.01, *;p<0.05). […] Each dot represents an individual replicate. Error bars display standard error of the mean.
Each dot represents one gene.

`CNC(=O)c1ccc(-c2cnc3ncc(Cc4ccc5ncccc5c4)n3n2)cc1F` [Capmatinib] showed an ES (GOMF_3_5_DNA_HELICASE_ACTIVITY) of -0.6834, an NES (GOMF_3_5_DNA_HELICASE_ACTIVITY, padj 0.00671103) of -1.906 and an ES (GOMF_ACTIVATING_TRANSCRIPTION_FACTOR_BINDING) of -0.4071. The NES (GOMF_ACTIVATING_TRANSCRIPTION_FACTOR_BINDING, padj 0.0419799) was -1.5828, the ES (GOMF_ALPHA_ACTININ_BINDING) was -0.5133 and the NES (GOMF_ALPHA_ACTININ_BINDING, padj 0.0520078) was -1.603. It also gave an ES (GOMF_AMYLOID_BETA_BINDING) of 0.3131, an NES (GOMF_AMYLOID_BETA_BINDING, padj 0.0419799) of 1.527 and an ES (GOMF_ANTIOXIDANT_ACTIVITY) of 0.3898. It also gave an NES (GOMF_ANTIOXIDANT_ACTIVITY, padj 0.0072907) of 1.809, an ES (GOMF_ATPASE_COUPLED_ION_TRANSMEMBRANE_TRANSPORTER_ACTIVITY) of 0.474 and an NES (GOMF_ATPASE_COUPLED_ION_TRANSMEMBRANE_TRANSPORTER_ACTIVITY, padj 0.00463) of 2.003. The ES (GOMF_BETA_2_MICROGLOBULIN_BINDING) was 0.5632, the NES (GOMF_BETA_2_MICROGLOBULIN_BINDING, padj 0.0448774) was 1.801 and the ES (GOMF_CALCIUM_DEPENDENT_PROTEIN_BINDING) was 0.337. The NES (GOMF_CALCIUM_DEPENDENT_PROTEIN_BINDING, padj 0.0607303) was 1.56, the ES (GOMF_CARBOHYDRATE_BINDING) was 0.2512 and the NES (GOMF_CARBOHYDRATE_BINDING, padj 0.0202682) was 1.428. It also gave an ES (GOMF_CARBOXYLIC_ESTER_HYDROLASE_ACTIVITY) of 0.3196, an NES (GOMF_CARBOXYLIC_ESTER_HYDROLASE_ACTIVITY, padj 0.00853155) of 1.6126 and an ES (GOMF_CATALYTIC_ACTIVITY_ACTING_ON_A_TRNA) of -0.5808. The NES (GOMF_CATALYTIC_ACTIVITY_ACTING_ON_A_TRNA, padj 7.15005e-11) was -2.431, the ES (GOMF_CATALYTIC_ACTIVITY_ACTING_ON_DNA) was -0.5359 and the NES (GOMF_CATALYTIC_ACTIVITY_ACTING_ON_DNA, padj 5.51748e-13) was -2.374. The ES (GOMF_CATION_CATION_ANTIPORTER_ACTIVITY) was 0.4863, the NES (GOMF_CATION_CATION_ANTIPORTER_ACTIVITY, padj 0.0546567) was 1.7655 and the ES (GOMF_CATION_TRANSMEMBRANE_TRANSPORTER_ACTIVITY) was 0.1933. For the same compound, the NES (GOMF_CATION_TRANSMEMBRANE_TRANSPORTER_ACTIVITY, padj 0.0600708) was 1.207, the ES (GOMF_COA_HYDROLASE_ACTIVITY) was 0.52 and the NES (GOMF_COA_HYDROLASE_ACTIVITY, padj 0.0696276) was 1.759. It also gave an ES (GOMF_CORE_PROMOTER_SEQUENCE_SPECIFIC_DNA_BINDING) of -0.4562, an NES (GOMF_CORE_PROMOTER_SEQUENCE_SPECIFIC_DNA_BINDING, padj 0.072132) of -1.575 and an ES (GOMF_CYTOKINE_BINDING) of 0.2766. For the same compound, the NES (GOMF_CYTOKINE_BINDING, padj 0.0484841) was 1.402, the ES (GOMF_CYTOKINE_RECEPTOR_ACTIVITY) was 0.3569 and the NES (GOMF_CYTOKINE_RECEPTOR_ACTIVITY, padj 0.00978552) was 1.74. For the same compound, the ES (GOMF_DELAYED_RECTIFIER_POTASSIUM_CHANNEL_ACTIVITY) was 0.4424, the NES (GOMF_DELAYED_RECTIFIER_POTASSIUM_CHANNEL_ACTIVITY, padj 0.0600708) was 1.691 and the ES (GOMF_DEMETHYLASE_ACTIVITY) was -0.5386. It also gave an NES (GOMF_DEMETHYLASE_ACTIVITY, padj 0.0072907) of -1.838, an ES (GOMF_DNA_BINDING_TRANSCRIPTION_ACTIVATOR_ACTIVITY) of -0.3206 and an NES (GOMF_DNA_BINDING_TRANSCRIPTION_ACTIVATOR_ACTIVITY, padj 0.00368803) of -1.494. For the same compound, the ES (GOMF_DNA_BINDING_TRANSCRIPTION_REPRESSOR_ACTIVITY) was -0.3134, the NES (GOMF_DNA_BINDING_TRANSCRIPTION_REPRESSOR_ACTIVITY, padj 0.0381242) was -1.423 and the ES (GOMF_DNA_HELICASE_ACTIVITY) was -0.6746. It also gave an NES (GOMF_DNA_HELICASE_ACTIVITY, padj 6.80206e-12) of -2.633, an ES (GOMF_DNA_POLYMERASE_ACTIVITY) of -0.499 and an NES (GOMF_DNA_POLYMERASE_ACTIVITY, padj 0.057276) of -1.624. The ES (GOMF_DNA_POLYMERASE_BINDING) was -0.6079, the NES (GOMF_DNA_POLYMERASE_BINDING, padj 0.0319688) was -1.763 and the ES (GOMF_DOUBLE_STRANDED_RNA_BINDING) was -0.4239. For the same compound, the NES (GOMF_DOUBLE_STRANDED_RNA_BINDING, padj 0.0120781) was -1.66, the ES (GOMF_ENDONUCLEASE_ACTIVITY) was -0.4125 and the NES (GOMF_ENDONUCLEASE_ACTIVITY, padj 0.00509455) was -1.716. The ES (GOMF_ENDONUCLEASE_ACTIVITY_ACTIVE_WITH_EITHER_RIBO_OR_DEOXYRIBONUCLEIC_ACIDS_AND_PRODUCING_5_PHOSPHOMONOESTERS) was -0.5195, the NES (GOMF_ENDONUCLEASE_ACTIVITY_ACTIVE_WITH_EITHER_RIBO_OR_DEOXYRIBONUCLEIC_ACIDS_AND_PRODUCING_5_PHOSPHOMONOESTERS, padj 0.00950889) was -1.794 and the ES (GOMF_ENDOPEPTIDASE_REGULATOR_ACTIVITY) was 0.2991. It also gave an NES (GOMF_ENDOPEPTIDASE_REGULATOR_ACTIVITY, padj 0.0132396) of 1.521, an ES (GOMF_ENDORIBONUCLEASE_ACTIVITY) of -0.4748 and an NES (GOMF_ENDORIBONUCLEASE_ACTIVITY, padj 0.00565255) of -1.786. It also gave an ES (GOMF_ENDORIBONUCLEASE_ACTIVITY_PRODUCING_5_PHOSPHOMONOESTERS) of -0.5711, an NES (GOMF_ENDORIBONUCLEASE_ACTIVITY_PRODUCING_5_PHOSPHOMONOESTERS, padj 0.0162496) of -1.81 and an ES (GOMF_FATTY_ACID_BINDING) of 0.4525. The NES (GOMF_FATTY_ACID_BINDING, padj 0.0492693) was 1.741, the NES (GOMF_FOUR_WAY_JUNCTION_DNA_BINDING, padj 0.0177962) was -1.783 and the NES (GOMF_GLUTATHIONE_PEROXIDASE_ACTIVITY, padj 0.00790825) was 2.092. It also gave an ES (GOMF_GLYCOLIPID_BINDING) of 0.506, an NES (GOMF_GLYCOLIPID_BINDING, padj 0.0202682) of 1.835 and an ES (GOMF_GUANYL_NUCLEOTIDE_BINDING) of -0.2896. It also gave an NES (GOMF_GUANYL_NUCLEOTIDE_BINDING, padj 0.0419799) of -1.351, an ES (GOMF_HEAT_SHOCK_PROTEIN_BINDING) of -0.3614 and an NES (GOMF_HEAT_SHOCK_PROTEIN_BINDING, padj 0.0624118) of -1.511. For the same compound, the ES (GOMF_HEME_COPPER_TERMINAL_OXIDASE_ACTIVITY) was 0.566, the NES (GOMF_HEME_COPPER_TERMINAL_OXIDASE_ACTIVITY, padj 0.00343436) was 2.052 and the ES (GOMF_HISTONE_DEACETYLASE_BINDING) was -0.365. For the same compound, the NES (GOMF_HISTONE_DEACETYLASE_BINDING, padj 0.0452435) was -1.507, the ES (GOMF_HYDROLASE_ACTIVITY_ACTING_ON_ACID_ANHYDRIDES) was -0.3454 and the ES (GOMF_HYDROLASE_ACTIVITY_ACTING_ON_CARBON_NITROGEN_BUT_NOT_PEPTIDE_BONDS_IN_CYCLIC_AMIDINES) was -0.5898. The NES (GOMF_HYDROLASE_ACTIVITY_ACTING_ON_CARBON_NITROGEN_BUT_NOT_PEPTIDE_BONDS_IN_CYCLIC_AMIDINES, padj 0.00629559) was -1.842, the ES (GOMF_ION_TRANSMEMBRANE_TRANSPORTER_ACTIVITY) was 0.1805 and the NES (GOMF_ION_TRANSMEMBRANE_TRANSPORTER_ACTIVITY, padj 0.0667134) was 1.183. It also gave an ES (GOMF_ISOMERASE_ACTIVITY) of -0.3436, an NES (GOMF_ISOMERASE_ACTIVITY, padj 0.0410059) of -1.472 and an ES (GOMF_KINASE_BINDING) of -0.2712. It also gave an NES (GOMF_KINASE_BINDING, padj 0.019253) of -1.314, an ES (GOMF_KINASE_INHIBITOR_ACTIVITY) of -0.4003 and an ES (GOMF_KINASE_REGULATOR_ACTIVITY) of -0.3132. It also gave an NES (GOMF_KINASE_REGULATOR_ACTIVITY, padj 0.0543588) of -1.396, an ES (GOMF_LIGASE_ACTIVITY_FORMING_CARBON_NITROGEN_BONDS) of -0.4994 and an NES (GOMF_LIGASE_ACTIVITY_FORMING_CARBON_NITROGEN_BONDS, padj 0.0116225) of -1.777. It also gave an ES (GOMF_LYSINE_ACETYLATED_HISTONE_BINDING) of -0.5519, an NES (GOMF_LYSINE_ACETYLATED_HISTONE_BINDING, padj 0.0564834) of -1.63 and an ES (GOMF_LYSOPHOSPHOLIPASE_ACTIVITY) of 0.4699. The NES (GOMF_LYSOPHOSPHOLIPASE_ACTIVITY, padj 0.0722653) was 1.706, the ES (GOMF_MAGNESIUM_ION_BINDING) was -0.3426 and the NES (GOMF_MAGNESIUM_ION_BINDING, padj 0.0134631) was -1.518. It also gave an NES (GOMF_MAP_KINASE_KINASE_KINASE_ACTIVITY, padj 0.0759934) of -1.58, an ES (GOMF_METALLOENDOPEPTIDASE_ACTIVITY) of -0.4444 and an NES (GOMF_METALLOENDOPEPTIDASE_ACTIVITY, padj 0.00334688) of -1.785. It also gave an ES (GOMF_METALLOPEPTIDASE_ACTIVITY) of -0.3671, an NES (GOMF_METALLOPEPTIDASE_ACTIVITY, padj 0.0120781) of -1.581 and an ES (GOMF_METHYL_CPG_BINDING) of -0.6439.
